PubChem BioAssay AID1919009 (Molecular Pharmacology Branch, DTP, NCI, 2023)

Test system: K24384-001-R-PDC complex spheroid growth
Assay: Anticancer human tumor K24384-001-R-PDC patient-derived pancreatic adenocarcinoma cell line growth inhibition [AhR]
Conditions: for IC50: curve of first compound; for viability, T/C: stronger effect = lower value; active means viability on the fitted dose curve at most 10% of control; inactive means the rest
Outline: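 Complex tumor spheroids co-cultured with HUVEC and human MSC stroma; AhR antagonists tested in combination with standard-of-care and investigational agents. Top concentration at or near clinical Cmax (else 10 microM), half-log dilutions; growth expressed as percent test/control.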

[1] = second compound 0.1 µM, first compound 0.0316 µM
[2] = second compound 0.1 µM, first compound 0.1 µM
[3] = second compound 0.1 µM, first compound 0.316 µM
[4] = second compound 0.1 µM, first compound 1 µM
[5] = second compound 0.1 µM, first compound 3.16 µM
[6] = second compound 0.1 µM, first compound 10 µM
[7] = second compound 0.316 µM, first compound 0.0316 µM
[8] = second compound 0.316 µM, first compound 0.1 µM
[9] = second compound 0.316 µM, first compound 0.316 µM
[10] = second compound 0.316 µM, first compound 1 µM
[11] = second compound 0.316 µM, first compound 3.16 µM
[12] = second compound 0.316 µM, first compound 10 µM
[13] = second compound 1 µM, first compound 0.0316 µM
[14] = second compound 1 µM, first compound 0.1 µM
[15] = second compound 1 µM, first compound 0.316 µM
[16] = second compound 1 µM, first compound 1 µM
[17] = second compound 1 µM, first compound 3.16 µM
[18] = second compound 1 µM, first compound 10 µM
[19] = second compound 3.16 µM, first compound 0.0316 µM
[20] = second compound 3.16 µM, first compound 0.1 µM
[21] = second compound 3.16 µM, first compound 0.316 µM
[22] = second compound 3.16 µM, first compound 1 µM
[23] = second compound 3.16 µM, first compound 3.16 µM
[24] = second compound 3.16 µM, first compound 10 µM
[25] = second compound 10 µM, first compound 0.0316 µM
[26] = second compound 10 µM, first compound 0.1 µM
[27] = second compound 10 µM, first compound 0.316 µM
[28] = second compound 10 µM, first compound 1 µM
[29] = second compound 10 µM, first compound 3.16 µM
[30] = second compound 10 µM, first compound 10 µM
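Wherever viability, T/C is given: percent of DMSO vehicle-treated spheroid viability set as 100%.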

CCc1c2c(nc3ccc(O)cc13)-c1cc3c(c(=O)n1C2)COC(=O)[C@]3(O)CC + Cc1ccccc1N=Nc1ccc(NC(=O)c2ccnn2C)c(C)c1
29.2 nM: IC50 (second compound 0.316 µM)
68 nM: IC50 (second compound 10 µM)
inactive: viability, T/C (second compound 0.1 µM, first compound 0.000949 µM) 74.2% | viability, T/C (second compound 0.1 µM, first compound 0.003 µM) 72.8% | viability, T/C (second compound 0.1 µM, first compound 0.00949 µM) 48.1% | viability, T/C (second compound 0.1 µM, first compound 0.03 µM) 48.9% | viability, T/C (second compound 0.1 µM, first compound 0.0949 µM) 49.8% | viability, T/C (second compound 0.1 µM, first compound 0.3 µM) 36.7% | viability, T/C (second compound 0.316 µM, first compound 0.000949 µM) 96.2% | viability, T/C (second compound 0.316 µM, first compound 0.003 µM) 77.7% | viability, T/C (second compound 0.316 µM, first compound 0.00949 µM) 58.1% | viability, T/C (second compound 0.316 µM, first compound 0.03 µM) 51.6% | viability, T/C (second compound 0.316 µM, first compound 0.0949 µM) 41.9% | viability, T/C (second compound 0.316 µM, first compound 0.3 µM) 31.4% | viability, T/C (second compound 1 µM, first compound 0.000949 µM) 77.4% | viability, T/C (second compound 1 µM, first compound 0.003 µM) 100% | viability, T/C (second compound 1 µM, first compound 0.00949 µM) 46.7% | viability, T/C (second compound 1 µM, first compound 0.03 µM) 45.2% | viability, T/C (second compound 1 µM, first compound 0.0949 µM) 47.6% | viability, T/C (second compound 1 µM, first compound 0.3 µM) 30.8% | viability, T/C (second compound 3.16 µM, first compound 0.000949 µM) 73.3% | viability, T/C (second compound 3.16 µM, first compound 0.003 µM) 62% | viability, T/C (second compound 3.16 µM, first compound 0.00949 µM) 55.6% | viability, T/C (second compound 3.16 µM, first compound 0.03 µM) 46.1% | viability, T/C (second compound 3.16 µM, first compound 0.0949 µM) 41.5% | viability, T/C (second compound 3.16 µM, first compound 0.3 µM) 30% | viability, T/C (second compound 10 µM, first compound 0.000949 µM) 94% | viability, T/C (second compound 10 µM, first compound 0.003 µM) 82% | viability, T/C (second compound 10 µM, first compound 0.00949 µM) 64.3% | viability, T/C (second compound 10 µM, first compound 0.03 µM) 65.7% | viability, T/C (second compound 10 µM, first compound 0.0949 µM) 48.6% | viability, T/C (second compound 10 µM, first compound 0.3 µM) 29.3%
19.8 nM: IC50 (second compound 3.16 µM)
8.68 nM: IC50 (second compound 1 µM)
8.69 nM: IC50 (second compound 0.1 µM)

Nc1ccccc1NC(=O)c1ccc(CNC(=O)OCc2cccnc2)cc1 + Cc1ccccc1N=Nc1ccc(NC(=O)c2ccnn2C)c(C)c1
1710 nM: IC50 (second compound 0.316 µM)
1410 nM: IC50 (second compound 3.16 µM)
1330 nM: IC50 (second compound 1 µM)
1500 nM: IC50 (second compound 10 µM)
inactive: viability, T/C [1] 100% | viability, T/C [2] 93.9% | viability, T/C [3] 83.2% | viability, T/C [4] 63.6% | viability, T/C [5] 37% | viability, T/C [7] 105% | viability, T/C [8] 104% | viability, T/C [9] 78.2% | viability, T/C [10] 68.7% | viability, T/C [11] 32.3% | viability, T/C [13] 95.1% | viability, T/C [14] 94.7% | viability, T/C [15] 67.9% | viability, T/C [16] 60.2% | viability, T/C [17] 30.4% | viability, T/C [19] 85.9% | viability, T/C [20] 78.3% | viability, T/C [21] 80.6% | viability, T/C [22] 52.9% | viability, T/C [23] 34% | viability, T/C [25] 81.8% | viability, T/C [26] 84.1% | viability, T/C [27] 80.4% | viability, T/C [28] 54.5% | viability, T/C [29] 35.2%
1810 nM: IC50 (second compound 0.1 µM)
active: viability, T/C [6] 7.04% | viability, T/C [12] 6.55% | viability, T/C [18] 5.37% | viability, T/C [24] 4.36% | viability, T/C [30] 6.31%

Nc1ccn(C2OC(CO)C(O)C2(F)F)c(=O)n1 (stereo not given) + Cc1ccccc1N=Nc1ccc(NC(=O)c2ccnn2C)c(C)c1
inactive: viability, T/C [1] 67.6% | viability, T/C [2] 51.8% | viability, T/C [3] 35.9% | viability, T/C [4] 29.9% | viability, T/C [5] 22.9% | viability, T/C [6] 20.6% | viability, T/C [7] 61.8% | viability, T/C [8] 53.7% | viability, T/C [9] 44.5% | viability, T/C [10] 28% | viability, T/C [11] 19.2% | viability, T/C [12] 19.7% | viability, T/C [13] 67.6% | viability, T/C [14] 57.4% | viability, T/C [15] 40.6% | viability, T/C [16] 25.8% | viability, T/C [17] 21.2% | viability, T/C [18] 15.1% | viability, T/C [19] 58% | viability, T/C [20] 60.4% | viability, T/C [21] 41.9% | viability, T/C [22] 25.9% | viability, T/C [23] 20.5% | viability, T/C [24] 17.1% | viability, T/C [25] 69.3% | viability, T/C [26] 63.2% | viability, T/C [27] 60% | viability, T/C [28] 35.3% | viability, T/C [29] 28.7% | viability, T/C [30] 20.1%
168 nM: IC50 (second compound 0.316 µM)
109 nM: IC50 (second compound 0.1 µM)
184 nM: IC50 (second compound 3.16 µM)
493 nM: IC50 (second compound 10 µM)
164 nM: IC50 (second compound 1 µM)

O=C(c1cc(Cc2n[nH]c(=O)c3ccccc23)ccc1F)N1CCN(C(=O)C2CC2)CC1 + Cc1ccccc1N=Nc1ccc(NC(=O)c2ccnn2C)c(C)c1
> 10000 nM: IC50 (second compound 0.1 µM) | IC50 (second compound 0.316 µM) | IC50 (second compound 1 µM) | IC50 (second compound 3.16 µM) | IC50 (second compound 10 µM)
inactive: viability, T/C [1] 86.1% | viability, T/C [2] 94.5% | viability, T/C [3] 99.4% | viability, T/C [4] 83.3% | viability, T/C [5] 75.8% | viability, T/C [6] 79.2% | viability, T/C [7] 99.9% | viability, T/C [8] 97.2% | viability, T/C [9] 79.4% | viability, T/C [10] 86.2% | viability, T/C [11] 85.8% | viability, T/C [12] 58% | viability, T/C [13] 89.9% | viability, T/C [14] 109% | viability, T/C [15] 77.4% | viability, T/C [16] 81.1% | viability, T/C [17] 66.2% | viability, T/C [18] 63.2% | viability, T/C [19] 75.9% | viability, T/C [20] 80.6% | viability, T/C [21] 83.2% | viability, T/C [22] 72.4% | viability, T/C [23] 60.3% | viability, T/C [24] 51.6% | viability, T/C [25] 101% | viability, T/C [26] 84.1% | viability, T/C [27] 95.1% | viability, T/C [28] 72.9% | viability, T/C [29] 65.2% | viability, T/C [30] 65.8%
